Measurements published in patent publication US7399775B2, “β-amyloid protein production/secretion inhibitor” (Daiichi Pharmaceutical Co., Ltd., priority 2001, dated 2008).
pEC50: −log10 of the molar value. Read-outs that look alike come from different tables or passages of the source.

Columns and labels:
[1] = system: β-amyloid protein (Aβ) production/secretion in E35 cells (H4 cells transfected with APP751); assay: Cell-based assay for inhibition of production or secretion of β-amyloid protein (sandwich ELISA of Aβ in culture medium); set-up: species or system human; details: 24 h with compound, Aβ in medium by sandwich ELISA, read-out: Activity (EC50 class, inhibition of Aβ secreted in culture medium)
Procedure: Cell-Based Assay for Screening of a Compound Which Inhibits Production or Secretion of β-Amyloid Protein
E35 cells which were established by transfecting APP751 gene which is a wild type human β-amyloid protein precursor into human glioma cells (H4 cells), were used to analyze inhibitory activity of a compound against β-amyloid production. The amount of β protein (Aβ) secreted in a culture medium was measured by the sandwich enzyme-linked imunosorbent assay.
E35 cells were seeded in Dulbecco's Modified Eagle's Medium containing 10% inactivated fetal bovine serum on 96-well plates and cultured in humidified air and 5% CO2 at 37° C. in a CO2 incubator. Twenty-four hours after seeding of the cells, a test compound dissolved in DMSO was added to the medium. The DMSO solution of the compound was prepared so as to give the final concentration of DMSO in the medium 0.05%. The cells were cultured for additional twenty-four hours, and then the cultured medium was collected. The medium collected was applied to a 96-well ELISA plate on which a monoclonal antibody 25-1, which recognized Aβ25-35, was immobilized, followed by the incubation at 4° C. for 16 to 20 hours. After washing with a phosphate buffer (pH 7.4), a biotinylated monoclonal antibody MA32-40, which recognizes Aβ1-8, was added to the plate, and the plate was incubated at 4° C. for 2 hours. Then alkaline phosphatase-conjugated streptavidin was added to the plate. Alkaline phosphatase activity was measured by a […] assay using BlouPhos (manufactured by KPL) as a substrate. An amount of Aβ in the medium was calculated using a calibration curve separately created. EC50 of the test compound was presented as the concentration that gives 50% inhibitory activity compared to the control cells which were not treated with the compound.

Structure (SMILES) | pEC50 ([1]; Homo sapiens, 24 h) | melting point [°C] | pEC50 [1]
CCCC=C(c1cc(F)ccc1F)S(=O)(=O)c1ccc(Cl)cc1 [Example 12, 2-[1-[(4-Chlorophenyl)sulfonyl]-1-penten-1-yl]-1,4-difluorobenzene] | 5.30 to 6.30 | 95.5 to 97 | 
O=S(=O)(c1ccc(Cl)cc1)C(CCCCCO)c1cc(F)ccc1F (stereo not shown) [Example 32, 6-[(4-Chlorophenyl)sulfonyl]-6-(2,5-difluorophenyl)-1-hexanol] | 6.30 to 7.30 | 98 to 99 | 
CC(CCCS(C)(=O)=O)C(c1cc(F)ccc1F)S(=O)(=O)c1ccc(Cl)cc1 (stereo not shown) [Example 47, 2-[1-[(4-Chlorophenyl)sulfonyl]-2-methyl-5-(methylsulfonyl)pentyl]-1,4-difluorobenzene] |  | 142 to 144 | ≥ 7.30
CCC=CC(c1cc(F)ccc1F)S(=O)(=O)c1ccc(Cl)cc1 (stereo not shown) [Example 14, 2-[1-[(4-Chlorophenyl)sulfonyl]-2-penten-1-yl]-1,4-difluorobenzene] | 5.30 to 6.30 | 99 to 100 | 
O=S(=O)(c1ccc(Cl)cc1)C(c1cc(F)ccc1F)C1CCOCC1 (stereo not shown) [Example 287, 4-[[(4-Chlorophenyl)sulfonyl](2,5-difluorophenyl)methyl]tetrahydropyran] | 6.30 to 7.30 | 150 to 152 | 
O=C(O)CCc1ccc(C(c2cc(F)ccc2F)S(=O)(=O)c2ccc(Cl)cc2)nc1 (stereo not shown) [Example 334, 3-[6-[(4-Chlorophenylsulfonyl)-(2,5-difluorophenyl)methyl]pyridin-3-yl]propionic Acid] | 6.30 to 7.30 | 158 to 160 | 
O=S(=O)(c1ccc(Cl)cc1)C(CCCCO)c1cc(F)ccc1F (stereo not shown) [Example 29, 5-[(4-Chlorophenyl)sulfonyl]-5-(2,5-difluorophenyl)-1-pentanol] | 6.30 to 7.30 | 84 to 86 | 
O=S(=O)(c1ccc(Cl)cc1)C(CCOCCO)c1cc(F)ccc1F (stereo not shown) [Example 35, 2-[3-[(4-Chlorophenyl)sulfonyl]-3-(2,5-difluorophenyl)propoxy]ethanol] | 5.30 to 6.30 | 41 to 46 | 
O=S(=O)(c1ccc(Cl)cc1)C(c1ccc(C2OCCO2)cn1)c1cc(F)ccc1F (stereo not shown) [Example 330, 2-[(4-Chlorophenylsulfonyl)-(2,5-difluorophenyl)methyl]-5-(1,3-dioxolan-2-yl)pyridine] | 6.30 to 7.30 | 167 to 168 | 

Other lines, results leading:

pEC50 ([1]; Homo sapiens, 24 h) | melting point [°C] | pEC50 [1] | Structure (SMILES)
6.30 to 7.30 | 150 to 152 |  | O=S(=O)(c1ccc(Cl)cc1)C(c1cc(F)ccc1F)C1CCSCC1 (stereo not shown) [Example 288, 4-[[(4-Chlorophenyl)sulfonyl](2,5-difluorophenyl)methyl]tetrahydrothiopyran]
6.30 to 7.30 | 115 to 117 |  | CC(CCCS(C)(=O)=O)C(c1cc(F)ccc1F)S(=O)(=O)c1ccc(Cl)cc1 (stereo not shown) [Example 46, 2-[1-[(4-Chlorophenyl)sulfonyl]-2-methyl-5-(methylsulfonyl)pentyl]-1,4-difluorobenzene]
≥ 7.30 | 146 to 148 |  | O=S(=O)(c1ccc(Cl)cc1)C(c1cc(F)ccc1F)c1cc(N2CCC(O)CC2)ncc1Cl (stereo not shown) [Example 404, 5-Chloro-4-[(4-chlorophenylsulfonyl)-(2,5-difluorophenyl)methyl]-2-(4′-hydroxypiperidin-1′-yl)pyridine]
≥ 7.30 | 142 to 143 |  | Cc1cccnc1C(c1cc(F)ccc1F)S(=O)(=O)c1ccc(Cl)cc1 (stereo not shown) [Example 136, 2-[[(4-Chlorophenyl)sulfonyl]-(2,5-difluorophenyl)methyl]-3-methylpyridine]
≥ 7.30 | 137 to 139 |  | O=S(=O)(c1ccc(Cl)cc1)C1(c2cc(F)ccc2F)CCCCC1 [Example 33, 2-[1-[(4-Chlorophenyl)sulfonyl]cyclohexyl]-1,4-difluorobenzene]
6.30 to 7.30 | 107 to 109 |  | O=S(=O)(c1ccc(Cl)cc1)C(c1cc(F)ccc1F)C1CCCCC1 (stereo not shown) [Example 36, 2-[[(4-Chlorophenyl)sulfonyl](cylcohexyl)methyl]-1,4-difluorobenzene]
6.30 to 7.30 | 130 to 131 |  | O=S(=O)(c1ccc(Cl)cc1)C(c1cccnc1)c1cc(F)ccc1F (stereo not shown) [Example 141, 3-[[(4-Chlorophenyl)sulfonyl]-(2,5-difluorophenyl)methyl]pyridine]
≥ 7.30 | 160 to 161 |  | O=S(=O)(c1ccc(Cl)cc1)C(c1cc(F)ccc1F)c1ccncc1Cl (stereo not shown) [Example 343, 3-Chloro-4-[(4-chlorophenylsulfonyl)-(2,5-difluorophenyl)methyl]pyridine]
≥ 7.30 | 180 to 181 |  | O=S(=O)(c1ccc(Cl)cc1)C(c1cc(F)ccc1F)c1cc(N2CCOCC2)ncc1Cl (stereo not shown) [Example 347, 4-[5-Chloro-4-[(4-chlorophenylsulfonyl)-(2,5-difluorophenyl)methyl]pyridin-2-yl]morpholine]
≥ 7.30 | 157 to 160 |  | O=S(=O)(c1ccc(Cl)cc1)C1(c2cc(F)ccc2F)CCOCC1 [Example 48, 4-[(4-Chlorophenyl)sulfonyl]-4-(2,5-difluorophenyl)tetrahydropyrane]
≥ 7.30 | 107 to 112 |  | CC(CCC[S+](C)[O-])C(c1cc(F)ccc1F)S(=O)(=O)c1ccc(Cl)cc1 (stereo not shown) [Example 45, 2-[1-[(4-Chlorophenyl)sulfonyl]-2-methyl-5-(methylsulfinyl)pentyl]-1,4-difluorobenzene]
